Assay results as given in paper PMC4052318, “Cyclodepsipeptides and Other O-Containing Heterocyclic Metabolites from Beauveria felina EN-135, a Marine-Derived Entomopathogenic Fungus” (Marine Drugs, 2014).
Converted amounts (≈) assume the structure as drawn. Numbered stars: 1 amine (or outer) side, 2 acyl side, 3 side chain; on linkers, the order of the positions; unused ones are H or OH. Square brackets hold non-standard residues; d marks the D form. Peptide text beside a SMILES is read from it. X1 = O=C([C@@H](C[C@H](O)CCl)O[*:1])[*:2]; dLac(3-vinyl) = C=CC[C@@H](O)C(=O)O; NMeV = CN[C@H](C(=O)O)C(C)C; NMeA = CN[C@@H](C)C(=O)O; βAla = NCCC(=O)O

Assays:
[1] = test system: brine shrimp (Artemia salina); test: Brine-shrimp lethality; format: in vivo; conditions: for lethal rate against brine shrimp: at a concentration of 100 μg/mL; for LD50, lethality against brine shrimp: colchicine as positive control
Protocol: The brine-shrimp (Artemia salina) lethality of the isolated compounds was determined as previously described. Colchicine was used as a positive control.

P. aeruginosa = test: Antimicrobial assay (disk diffusion and double dilution methods); format: cell-based; conditions: Pseudomonas aeruginosa; chloramphenicol as positive control; read-out: MIC against P. aeruginosa
Text: The antibacterial activities against E. coli, S. aureus, P. aeruginosa, V. alginolyticus, V. anguillarum, and E. tarda along with the antifungal activities against P. piricola, A. brassicae, C. gloeosporioides, and C. fusarium were investigated using the disk diffusion and double dilution methods as previously described. Chloramphenicol and amphotericin B were used as positive controls for the antibacterial and antifungal bioassays, respectively.

Row | Molecule | LD50, lethality against brine shrimp [1] [μΜ] | other results
1 | C[C@@H]1CC2=C(CO1)C(=O)[C@@](C)(O)[C@H](O)C2 [Compound 2, felinone A] | – | lethal rate against brine shrimp [1]: 61.4%
2 | COc1cc2c(c(OC)c1OC)-c1ccc(OC)c(=O)cc1[C@@H](NC(C)=O)CC2 [colchicine, reference compound] | 88.4 | –
3 | CC[C@H](C)[C@@H]1NC(=O)[C@@H]2CCCN2C(=O)[C@@H](C[C@H](O)CCl)OC(=O)CCNC(=O)[C@H](C)N(C)C(=O)[C@H](C(C)C)N(C)C1=O [Compound 6, destruxin E chlorohydrin] (cyclo([X1]PI[NMeV][NMeA][βAla])) | 2.16 | –
4 | C=CC[C@H]1OC(=O)CCNC(=O)[C@H](C)N(C)C(=O)[C@H](C(C)C)N(C)C(=O)[C@H]([C@@H](C)CC)NC(=O)[C@@H]2CCCN2C1=O [Compound 4, destruxin A] (cyclo([dLac(3-vinyl)]PI[NMeV][NMeA][βAla])) | 5.34 | –
5 | CC[C@H](C)[C@@H]1CC(=O)NCC(=O)N[C@@H](C(C)C)C(=O)N[C@H](CC(C)C)C(=O)N[C@@H](C)C(=O)N[C@@H](C)C(=O)O1 [Compound 1, iso-isariin D] | 26.58 | –
6 | felinone B [Compound 3] | – | lethal rate against brine shrimp [1]: 59.6%
7 | O=C(N[C@H](CO)[C@H](O)c1ccc([N+](=O)[O-])cc1)C(Cl)Cl [chloramphenicol] | – | MIC (P. aeruginosa): 4 µg/mL (≈ 12.4 µM)
